Three molecules from patent publication US20080167297A1, “Pyrimidine Derivatives for Use as Anticancer Agents” (ASTRAZENECA AB, priority 2005, published 2008) can be followed below.

SMILES strings stand for the structures.

The subject of this assay is murine fibroblasts (NIH3T3) over-expressing human IGF-1 receptor. The assay is described as follows: Test (c): inhibition of IGF-stimulated cell proliferation (BrdU incorporation). Conditions: inhibition of IGF-stimulated proliferation in NIH3T3 over-expressing human IGF-1 receptor. Format: cell-based. The procedure:
The construction of murine fibroblasts (NIH3T3) over-expressing human IGF-1 receptor has been described by Lammers et al (EMBO J, 8, 1369-1375, 1989). These cells show a proliferative response to IGF-I which can be measured by BrdU incorporation into newly synthesised DNA. Compound potency was determined as causing inhibition of the IGF-stimulated proliferation in the following assay:
Compounds are initially dissolved in DMSO to 10 mM, followed by dilutions in DMEM+1% FCS+glutamine to give a range from […] in 1-0.00045% DMSO final concentration in assay well.
Exponentially growing NIH3T3/IGFR cells were harvested and seeded in complete growth medium into a flat-bottomed 96 well tissue culture grade plate (Costar 3525) at 1.2×10^4 cells per well in a volume of 100 μl.
Growth medium was carefully removed from each well using a multi-channel pipette. Wells were carefully rinsed three times with 200 μl with HBSS. 100 μl of starvation medium was added to each well and the plate was re-incubated for 24 hours.
50 μl of a 4× concentrate of test compound was added to appropriate wells. Cells were incubated for 30 minutes with compound alone before the addition of IGF. For cells treated with IGF, an appropriate volume (i.e. 25 μl) of starvation medium was added to make a final volume per well up to 200 μl followed by 25 μl of IGF-1 at 160 ng/ml (to give a final concentration of 20 ng/ml). […] The plate was re-incubated for 20 hours.
The incorporation of BrdU in the cells (after a 4 h incorporation period) was assessed using the BrdU Cell Proliferation Elisa according to the manufacturer's protocol.
A general note: Incorporation of labelled thymidine or its analogues reports DNA synthesis.

`Cc1cc(Nc2cc(C)[nH]n2)nc(N2CCC[C@H]2c2cc(-c3cccnc3C)no2)n1` [Example 3, S-2-[2-{3-(2-Methylpyrid-3-yl)isoxazol-5-yl}pyrrolidin-1-yl]-6-methyl-4-(5-methyl-1H-pyrazol-3-ylamino)pyrimidine] returned an IC50 of 0.006 µM.
For `CCOc1nccnc1-c1cc([C@@H]2CCCN2c2nc(C)cc(Nc3cc(C)[nH]n3)n2)on1` [Example 1, S-2-[2-{3-(3-Ethoxypyrazin-2-yl)isoxazol-5-yl}pyrrolidin-1-yl]-6-methyl-4-(5-methyl-1H-pyrazol-3-ylamino)pyrimidine], the IC50 worked out at 0.04 µM.
The value for `Cc1cc(Nc2cc(C)[nH]n2)nc(N2CCC[C@H]2c2cc(-c3cccnc3C#N)no2)n1` [Example 7, S-2-[2-{3-(2-Cyanopyrid-3-yl)isoxazol-5-yl}pyrrolidin-1-yl]-6-methyl-4-(5-methyl-1H-pyrazol-3-ylamino)pyrimidine] was 0.004 µM.

As usually defined, the IC50 is the concentration that inhibits the measured activity by half.
